Measured values taken from US10512268B2, “Herbicidal compounds” (Syngenta Participations AG, priority 2015, dated 2019).

Legend:
Assay type in all cases: in vivo
[1] = system: Solanum nigrum (SOLNI); test: Further testing, pre-emergence application; details: 1000 g/h, after 13 days
Procedure: (§1) Seeds of a variety of test species are sown in standard soil in pots (Lolium perenne (LOLPE), Solanum nigrum (SOLNI), Amaranthus retoflexus (AMARE), Setaria faberi (SETFA), Echinochloa crus-galli (ECHCG), Ipomoea hederacea (IPOHE)). After cultivation for one day (pre-emergence) or after 8 days cultivation (post-emergence) under controlled conditions in a glasshouse (at 24/16° C., day/night; 14 hours light; 65% humidity), the plants are sprayed with an aqueous spray solution derived from the formulation of the technical active ingredient in acetone/water (50:50) solution containing 0.5% Tween 20 (polyoxyethelyene sorbitan monolaurate, CAS RN 9005-64-5). Compounds are applied at 1000 g/h unless otherwise stated. The test plants are then grown in a glasshouse under controlled conditions in a glasshouse (at 24/16° C., day/night; 14 hours light; 65% humidity) and watered twice daily. After 13 days for pre and post-emergence, the test is evaluated for the percentage damage caused to the plant. The biological activities are shown in the following table on a five point scale (5=80-100%; 4=60-79%; 3=40-59%; 2=20-39%; 1=0-19%).

[2] = system: Ipomoea hederacea (IPOHE); test: Further testing, pre-emergence application; details: 1000 g/h, after 13 days
Procedure: as §1

[3] = system: Setaria faberi (SETFA); test: Further testing, pre-emergence application; details: 1000 g/h, after 13 days
Procedure: as §1

[4] = system: Echinochloa crus-galli (ECHCG); test: Further testing, pre-emergence application; details: 1000 g/h, after 13 days
Procedure: as §1

[5] = system: Amaranthus retoflexus (AMARE); test: Further testing, pre-emergence application; details: 1000 g/h, after 13 days
Procedure: as §1

[6] = system: Lolium perenne (LOLPE); test: Further testing, pre-emergence application; details: 1000 g/h, after 13 days
Procedure: as §1

[7] = system: Solanum nigrum (SOLNI); test: Further testing, post-emergence application; details: 1000 g/h, after 13 days
Procedure: as §1

[8] = system: Ipomoea hederacea (IPOHE); test: Further testing, post-emergence application; details: 1000 g/h, after 13 days
Procedure: as §1

[9] = system: Setaria faberi (SETFA); test: Further testing, post-emergence application; details: 1000 g/h, after 13 days
Procedure: as §1

[10] = system: Echinochloa crus-galli (ECHCG); test: Further testing, post-emergence application; details: 1000 g/h, after 13 days
Procedure: as §1

[11] = system: Amaranthus retoflexus (AMARE); test: Further testing, post-emergence application; details: 1000 g/h, after 13 days
Procedure: as §1

[12] = system: Lolium perenne (LOLPE); test: Further testing, post-emergence application; details: 1000 g/h, after 13 days
Procedure: as §1

[13] = system: Stellaria media (STEME); test: Comparative testing, glasshouse herbicide test, spray one day after sowing
Procedure: (§2) Seeds of a variety of test species are sown in standard soil in pots. After cultivation for one day under controlled conditions in a glasshouse (at 24/16° C., day/night; 14 hours light; 65% humidity), an aqueous spray solution derived from the formulation of the technical active ingredient in 0.6 ml acetone and 45 ml formulation solution containing 10.6% Emulsogen EL (Registry number 61791-12-6), 42.2% N-methyl pyrrolidone, 42.2% dipropylene glycol monomethyl ether (CAS RN 34590-94-8) and 0.2% X-77 (CAS RN 11097-66-8) is applied.
(§3) The test plants are then grown in a glasshouse under controlled conditions in a glasshouse (at 24/16° C., day/night; 14 hours light; 65% humidity) and watered twice daily. After 21 days, the test is evaluated (100=total damage to plant; 0=no damage to plant). Test plants (weed species) include: Alopecurus myosuroides (ALOMY), Bidens pilosa (BIDPI), Euphorbia heterophylla (EPHHL), Lolium perenne (LOLPE), Panicum milaceum (PANMI), Sida spinosa (SIDSP) and Stellaria media STEME).

[14] = system: Alopecurus myosuroides (ALOMY); test: as above
Procedure: as §2, §3

[15] = system: Euphorbia heterophylla (EPHHL); test: as above
Procedure: as §2, §3

[16] = system: Panicum milaceum (PANMI); test: as above
Procedure: as §2, §3

[17] = system: Sida spinosa (SIDSP); test: as above
Procedure: as §2, §3

[18] = system: Bidens pilosa (BIDPI); test: as above
Procedure: as §2, §3

[19] = system: Lolium perenne (LOLPE); test: as above
Procedure: as §2, §3

[20] = Rate 125, evaluated after 21 days
[21] = Rate 250, evaluated after 21 days

Row | SMILES | percentage damage caused to the plant, five point scale [1] | percentage damage caused to the plant, five point scale [2] | percentage damage caused to the plant, five point scale [3] | percentage damage caused to the plant, five point scale [4] | percentage damage caused to the plant, five point scale [5] | percentage damage caused to the plant, five point scale [6] | percentage damage caused to the plant, five point scale [7] | percentage damage caused to the plant, five point scale [8] | percentage damage caused to the plant, five point scale [9] | percentage damage caused to the plant, five point scale [10] | percentage damage caused to the plant, five point scale [11] | percentage damage caused to the plant, five point scale [12] | other results
1 | CCn1nnnc1NC(=O)c1nn(C)c(=O)c(C2CCCCC2)c1Cl [Compound 1.002] | 5 (5=80-100%) | 5 (5=80-100%) | 5 (5=80-100%) | 5 (5=80-100%) | 5 (5=80-100%) | 5 (5=80-100%) | 5 (5=80-100%) | 5 (5=80-100%) | 5 (5=80-100%) | 5 (5=80-100%) | 5 (5=80-100%) | 5 (5=80-100%) | –
2 | CCCn1nnnc1NC(=O)c1nn(C)c(=O)c(C2CCCCC2)c1Cl [Compound 1.003] | 5 (5=80-100%) | 5 (5=80-100%) | 5 (5=80-100%) | 5 (5=80-100%) | 5 (5=80-100%) | 5 (5=80-100%) | 5 (5=80-100%) | 5 (5=80-100%) | 5 (5=80-100%) | 5 (5=80-100%) | 5 (5=80-100%) | 4 (4=60-79%) | –
3 | Cn1nnnc1NC(=O)c1nn(C)c(=O)c(C2CCCC2)c1Cl [Compound 1.005] | 5 (5=80-100%) | 5 (5=80-100%) | 5 (5=80-100%) | 5 (5=80-100%) | 5 (5=80-100%) | 5 (5=80-100%) | 5 (5=80-100%) | 5 (5=80-100%) | 5 (5=80-100%) | 5 (5=80-100%) | 5 (5=80-100%) | 5 (5=80-100%) | –
4 | CCCn1nnnc1NC(=O)c1nn(C)c(=O)c(C2CCCC2)c1Cl [Compound 1.006] | 5 (5=80-100%) | 4 (4=60-79%) | 5 (5=80-100%) | 5 (5=80-100%) | 5 (5=80-100%) | 5 (5=80-100%) | 5 (5=80-100%) | 5 (5=80-100%) | 5 (5=80-100%) | 5 (5=80-100%) | 5 (5=80-100%) | 5 (5=80-100%) | –
5 | Cn1nnnc1NC(=O)c1nn(C)c(=O)c(C2CCC(C)(C)CC2)c1Cl [Compound 1.017] | 5 (5=80-100%) | 4 (4=60-79%) | 5 (5=80-100%) | 5 (5=80-100%) | 5 (5=80-100%) | 5 (5=80-100%) | 5 (5=80-100%) | 5 (5=80-100%) | 5 (5=80-100%) | 5 (5=80-100%) | 5 (5=80-100%) | 5 (5=80-100%) | –
6 | CC1CCC(c2c(Cl)c(C(=O)Nc3nnnn3C)nn(C)c2=O)CC1 (centres unmarked) [Compound 1.022] | 5 (5=80-100%) | 5 (5=80-100%) | 5 (5=80-100%) | 5 (5=80-100%) | 5 (5=80-100%) | 5 (5=80-100%) | 5 (5=80-100%) | 5 (5=80-100%) | 5 (5=80-100%) | 5 (5=80-100%) | 5 (5=80-100%) | 5 (5=80-100%) | –
7 | Cn1nnnc1NC(=O)c1nn(C)c(=O)c(C2CCCCC2)c1Cl [Compound 1.030] | 5 (5=80-100%) | 2 (2=20-39%) | 5 (5=80-100%) | 5 (5=80-100%) | 5 (5=80-100%) | 5 (5=80-100%) | 5 (5=80-100%) | 4 (4=60-79%) | 5 (5=80-100%) | 5 (5=80-100%) | 5 (5=80-100%) | 5 (5=80-100%) | –
8 | Cn1nnnc1NC(=O)c1nn(C)c(=O)c(C2CCCCC2)c1Cl [Compound 1.031] | 5 (5=80-100%) | 4 (4=60-79%) | 4 (4=60-79%) | 5 (5=80-100%) | 5 (5=80-100%) | 3 (3=40-59%) | 5 (5=80-100%) | 4 (4=60-79%) | 5 (5=80-100%) | 4 (4=60-79%) | 5 (5=80-100%) | 4 (4=60-79%) | –
9 | Cn1nc(C(=O)C2C(=O)CCCC2=O)c(Cl)c(C2CCCCC2)c1=O [Compound A, 2-(4-chloro-5-cyclohexyl-1-methyl-6-oxo-pyridazine-3-carbonyl)cyclohexane-1,3-dione, reference compound] | – | – | – | – | – | – | – | – | – | – | – | – | damage to plant (100=total damage to plant; 0=no damage to plant) [13, 20]: 50; damage to plant (100=total damage to plant; 0=no damage to plant) [13, 21]: 60; damage to plant (100=total damage to plant; 0=no damage to plant) [14, 20]: 0; damage to plant (100=total damage to plant; 0=no damage to plant) [14, 21]: 20; damage to plant (100=total damage to plant; 0=no damage to plant) [15, 20]: 0; damage to plant (100=total damage to plant; 0=no damage to plant) [15, 21]: 20; damage to plant (100=total damage to plant; 0=no damage to plant) [16, 20]: 0; damage to plant (100=total damage to plant; 0=no damage to plant) [16, 21]: 0; damage to plant (100=total damage to plant; 0=no damage to plant) [17, 20]: 0; damage to plant (100=total damage to plant; 0=no damage to plant) [17, 21]: 0; damage to plant (100=total damage to plant; 0=no damage to plant) [18, 20]: 0; damage to plant (100=total damage to plant; 0=no damage to plant) [18, 21]: 40; damage to plant (100=total damage to plant; 0=no damage to plant) [19, 20]: 10; damage to plant (100=total damage to plant; 0=no damage to plant) [19, 21]: 20
